Reference: PubChem BioAssay (NCI)
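Method: 48-hour compound exposure of cells in 96-well plates, five concentrations, linear interpolation of endpoints. At the GI50, growth is halved. TGI: concentration producing complete growth inhibition.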 Where a SMILES comes first, the peptide text is derived from it. Bridges are numbered along the chain shown (N, C = ends). [ ]: non-standard residue; d: D form. The star is where a group is joined. Cbz = O=C(OCc1ccccc1)*; Dab = NCC[CH](N)C(=O)O; Bn = c1ccc(C*)cc1

How the values were obtained:
Assay in all cases: NCI-60 cell line screen, 48 h
SK-MEL-2 melanoma = system: SK-MEL-2 melanoma
COLO 205 colon = system: COLO 205 colon
K-562 leukemia = system: K-562 leukemia
IGROV1 ovarian = system: IGROV1 ovarian
UACC-257 melanoma = system: UACC-257 melanoma
UO-31 renal = system: UO-31 renal
NCI-H522 lung = system: NCI-H522 lung
SNB-19 CNS = system: SNB-19 CNS
OVCAR-8 ovarian = system: OVCAR-8 ovarian
SK-MEL-28 melanoma = system: SK-MEL-28 melanoma
M14 melanoma = system: M14 melanoma
OVCAR-5 ovarian = system: OVCAR-5 ovarian
HCT-116 colon = system: HCT-116 colon
RPMI-8226 leukemia = system: RPMI-8226 leukemia
SNB-75 CNS = system: SNB-75 CNS
HCT-15 colon = system: HCT-15 colon
NCI/ADR-RES ovarian = system: NCI/ADR-RES ovarian
DU-145 prostate = system: DU-145 prostate
NCI-H23 lung = system: NCI-H23 lung
SN12C renal = system: SN12C renal
OVCAR-3 ovarian = system: OVCAR-3 ovarian
T-47D breast = system: T-47D breast
MCF7 breast = system: MCF7 breast
SF-539 CNS = system: SF-539 CNS
SF-268 CNS = system: SF-268 CNS
A549 NSCLC = system: A549 NSCLC
KM12 colon = system: KM12 colon
PC-3 prostate = system: PC-3 prostate
SF-295 CNS = system: SF-295 CNS
SR leukemia = system: SR leukemia
786-0 renal = system: 786-0 renal
MDA-MB-435 = system: MDA-MB-435
HT29 colon = system: HT29 colon
HS 578T breast = system: HS 578T breast
UACC-62 melanoma = system: UACC-62 melanoma
EKVX NSCLC = system: EKVX NSCLC
NCI-H460 lung = system: NCI-H460 lung
MOLT-4 leukemia = system: MOLT-4 leukemia
ACHN renal = system: ACHN renal
CCRF-CEM leukemia = system: CCRF-CEM leukemia
HOP-62 NSCLC = system: HOP-62 NSCLC
A498 renal = system: A498 renal
SK-MEL-5 melanoma = system: SK-MEL-5 melanoma
RXF 393 renal = system: RXF 393 renal
HL-60(TB) leukemia = system: HL-60(TB) leukemia
MDA-MB-231 breast = system: MDA-MB-231 breast
SW-620 colon = system: SW-620 colon
SK-OV-3 ovarian = system: SK-OV-3 ovarian
LOX IMVI melanoma = system: LOX IMVI melanoma
BT-549 breast = system: BT-549 breast
MALME-3M melanoma = system: MALME-3M melanoma
HOP-92 NSCLC = system: HOP-92 NSCLC
TK-10 renal = system: TK-10 renal
U251 CNS = system: U251 CNS
CAKI-1 renal = system: CAKI-1 renal
OVCAR-4 ovarian = system: OVCAR-4 ovarian
NCI-H226 lung = system: NCI-H226 lung

CCn1ncc2c1nc(-c1ccccc1)c[n+]2[O-]
TGI (SK-MEL-2 melanoma): > 100 µM | TGI (COLO 205 colon): > 100 µM | TGI (K-562 leukemia): > 100 µM | TGI (IGROV1 ovarian): > 100 µM | TGI (UACC-257 melanoma): > 100 µM | TGI (UO-31 renal): > 100 µM | TGI (NCI-H522 lung): > 100 µM | TGI (SNB-19 CNS): > 100 µM | TGI (OVCAR-8 ovarian): > 100 µM | TGI (SK-MEL-28 melanoma): > 100 µM | TGI (M14 melanoma): > 100 µM | TGI (OVCAR-5 ovarian): > 100 µM | TGI (HCT-116 colon): > 100 µM | TGI (RPMI-8226 leukemia): > 100 µM | TGI (SNB-75 CNS): > 100 µM | TGI (HCT-15 colon): > 100 µM | TGI (NCI/ADR-RES ovarian): > 100 µM | TGI (DU-145 prostate): > 100 µM | TGI (NCI-H23 lung): > 100 µM | TGI (SN12C renal): > 100 µM | TGI (OVCAR-3 ovarian): > 100 µM | TGI (T-47D breast): > 100 µM | TGI (MCF7 breast): > 100 µM | TGI (SF-539 CNS): > 100 µM | TGI (SF-268 CNS): > 100 µM | TGI (A549 NSCLC): > 100 µM | TGI (KM12 colon): > 100 µM | TGI (PC-3 prostate): > 100 µM | TGI (SF-295 CNS): > 100 µM | TGI (SR leukemia): > 100 µM | TGI (786-0 renal): > 100 µM | TGI (MDA-MB-435): > 100 µM | TGI (HT29 colon): > 100 µM | TGI (HS 578T breast): > 100 µM | TGI (UACC-62 melanoma): > 100 µM | TGI (EKVX NSCLC): > 100 µM | TGI (NCI-H460 lung): > 100 µM | TGI (MOLT-4 leukemia): > 100 µM | TGI (ACHN renal): > 100 µM | TGI (CCRF-CEM leukemia): > 100 µM

Cc1ccc(S(=O)(=O)Oc2ccc([N+](=O)[O-])cc2[N+](=O)[O-])cc1
GI50 (SK-MEL-2 melanoma): 4.31 µM | TGI (SK-MEL-2 melanoma): 16.6 µM | GI50 (HOP-62 NSCLC): 13.6 µM | TGI (HOP-62 NSCLC): 30.5 µM | GI50 (A498 renal): 11.8 µM | TGI (A498 renal): 24.9 µM | GI50 (SK-MEL-5 melanoma): 3.26 µM | TGI (SK-MEL-5 melanoma): 12.5 µM | GI50 (COLO 205 colon): 4.51 µM | TGI (COLO 205 colon): 18.6 µM | GI50 (K-562 leukemia): 689 nM | TGI (K-562 leukemia): > 100 µM | GI50 (IGROV1 ovarian): 2460 nM | TGI (IGROV1 ovarian): 8.37 µM | GI50 (RXF 393 renal): 7.89 µM | TGI (RXF 393 renal): 20.7 µM | GI50 (HL-60(TB) leukemia): 11.4 µM | TGI (HL-60(TB) leukemia): 38.3 µM | GI50 (UACC-257 melanoma): 2770 nM | TGI (UACC-257 melanoma): 12.2 µM | GI50 (UO-31 renal): 2480 nM | TGI (UO-31 renal): 9.26 µM | GI50 (MDA-MB-231 breast): 6.7 µM | TGI (MDA-MB-231 breast): 22.1 µM | GI50 (SW-620 colon): 4.04 µM | TGI (SW-620 colon): 24.9 µM | GI50 (SNB-19 CNS): 17.2 µM | TGI (SNB-19 CNS): 38.1 µM | GI50 (OVCAR-8 ovarian): 4.24 µM | TGI (OVCAR-8 ovarian): 20.5 µM | GI50 (SK-MEL-28 melanoma): 13 µM | TGI (SK-MEL-28 melanoma): 26.4 µM | GI50 (M14 melanoma): 2570 nM | TGI (M14 melanoma): 10.9 µM | GI50 (OVCAR-5 ovarian): 8.01 µM | TGI (OVCAR-5 ovarian): 26.6 µM | GI50 (HCT-116 colon): 3.16 µM | TGI (HCT-116 colon): 13.2 µM | GI50 (RPMI-8226 leukemia): 2450 nM | TGI (RPMI-8226 leukemia): 7.84 µM | GI50 (SNB-75 CNS): 6.77 µM | TGI (SNB-75 CNS): 21.3 µM | GI50 (HCT-15 colon): 3.61 µM | TGI (HCT-15 colon): 17.9 µM | GI50 (NCI/ADR-RES ovarian): 5.31 µM | TGI (NCI/ADR-RES ovarian): 38 µM | GI50 (DU-145 prostate): 11.4 µM | TGI (DU-145 prostate): 23.5 µM | GI50 (SK-OV-3 ovarian): 9.4 µM | TGI (SK-OV-3 ovarian): 91.3 µM | GI50 (NCI-H23 lung): 6.15 µM | TGI (NCI-H23 lung): 32.3 µM | GI50 (SN12C renal): 3.78 µM | TGI (SN12C renal): 17.3 µM | GI50 (LOX IMVI melanoma): 3.23 µM | TGI (LOX IMVI melanoma): 15 µM | GI50 (OVCAR-3 ovarian): 3.24 µM | TGI (OVCAR-3 ovarian): 11.5 µM | GI50 (BT-549 breast): 5.41 µM | TGI (BT-549 breast): 18 µM | GI50 (MALME-3M melanoma): 10.7 µM | TGI (MALME-3M melanoma): 29.8 µM | GI50 (T-47D breast): 15.3 µM | TGI (T-47D breast): 45 µM | GI50 (MCF7 breast): 4.13 µM | TGI (MCF7 breast): 23.2 µM | GI50 (SF-539 CNS): 4.54 µM | TGI (SF-539 CNS): 18.2 µM | GI50 (HOP-92 NSCLC): 4.34 µM | TGI (HOP-92 NSCLC): 21.7 µM | GI50 (SF-268 CNS): 3.64 µM | TGI (SF-268 CNS): 15 µM | GI50 (A549 NSCLC): 8.53 µM | TGI (A549 NSCLC): 22.2 µM | GI50 (KM12 colon): 6.7 µM | TGI (KM12 colon): 20 µM | GI50 (PC-3 prostate): 5.15 µM | TGI (PC-3 prostate): 26.5 µM | GI50 (SF-295 CNS): 10.4 µM | TGI (SF-295 CNS): 25.2 µM | GI50 (786-0 renal): 3.83 µM | TGI (786-0 renal): 14.6 µM | GI50 (TK-10 renal): 4.54 µM | TGI (TK-10 renal): 17.4 µM | GI50 (U251 CNS): 3.83 µM | TGI (U251 CNS): 14.5 µM | GI50 (MDA-MB-435): 3.1 µM | TGI (MDA-MB-435): 10.5 µM | GI50 (HT29 colon): 3.63 µM | TGI (HT29 colon): 58.7 µM | GI50 (HS 578T breast): 21.5 µM | TGI (HS 578T breast): > 100 µM | GI50 (UACC-62 melanoma): 12.4 µM | TGI (UACC-62 melanoma): 30.9 µM | GI50 (EKVX NSCLC): 17.9 µM | TGI (EKVX NSCLC): 34.4 µM | GI50 (NCI-H460 lung): 15.4 µM | TGI (NCI-H460 lung): 39 µM | GI50 (CAKI-1 renal): 2030 nM | TGI (CAKI-1 renal): 4.27 µM | GI50 (MOLT-4 leukemia): 3.82 µM | TGI (MOLT-4 leukemia): 55.1 µM | GI50 (OVCAR-4 ovarian): 7.51 µM | TGI (OVCAR-4 ovarian): 20.4 µM | GI50 (NCI-H226 lung): 10.6 µM | TGI (NCI-H226 lung): 43.6 µM | GI50 (ACHN renal): 7.64 µM | TGI (ACHN renal): 22.5 µM | GI50 (CCRF-CEM leukemia): 600 nM | TGI (CCRF-CEM leukemia): 15.7 µM

CC(C)CC1NC(=O)C(Cc2ccccc2)NC(=O)C(Cc2ccccc2)NC(=O)C(NC(=O)C(Cc2ccc(OCc3ccccc3)cc2)NC(=O)OCc2ccccc2)CCNC1=O (centres undefined) (Cbz-Y(Bn)[Dab]FFL; lactam 2-C; configuration not given here)
TGI (UACC-257 melanoma): 84.7 µM | TGI (NCI-H23 lung): > 100 µM | TGI (HOP-92 NSCLC): > 100 µM | TGI (NCI-H226 lung): > 100 µM
